The source made the active and inactive calls.
Columns and labels:
[1] = target: DNA dC->dU-editing enzyme APOBEC-3A (Homo sapiens, UniProt P31941); experiment: SAR analysis of small molecule inhibitors of APOBEC3A DNA Deaminase via a fluorescence-based single-stranded DNA deaminase assay.; assay type: functional; settings: read-out: IC50_Mean
[2] = target: DNA dC->dU-editing enzyme APOBEC-3G (Homo sapiens, UniProt Q9HC16); experiment: APOBEC3G deaminase inhibitors, SAR follow-up, biochemical, fluorescence, single-stranded DNA substrate (AID 602136); assay type: functional; settings: read-out: IC50_Mean
[3] = target: T1, Insulin-degrading enzyme (Homo sapiens, UniProt P14735); experiment: activators of recombinant IDE enzyme, dose response, counter-screen for IDE activator project, biochemical, fluorescence polarization (AID 588681)
[4] = test system: HEK293; experiment: HEK cell cytotoxicity by LDH release, dose response, cytotoxicity control for IDE activator project, fluorescence, HEK cells (AID 588440); assay type: functional, cell-based; settings: Homo sapiens;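 further: cytotoxicity by LDH release measuring loss of membrane integrity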
[5] = test system: HEK293; experiment: optical interference in Abeta FP readout, dose response, artefact control for IDE activator project, biochemical, fluorescence polarization (AID 588442); assay type: functional, cell-based; settings: Homo sapiens
[6] = target: T1, Insulin-degrading enzyme; experiment: activators of endogenous IDE in HEK cells, dose response, cell-based, fluorescence polarization (AID 588439); assay type: functional
[7] = target: Cyclin-dependent kinase 8 (Homo sapiens, UniProt P49336); experiment: Navigating the Kinome. Panel member name: CDK8; assay type: functional
[8] = target: Glycogen synthase kinase-3 beta (Homo sapiens, UniProt P49841); assay type: functional;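 further: value comes from a broad kinome profiling panel, with GSK3B as the panel member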
[9] = target: Dual specificity tyrosine-phosphorylation-regulated kinase 1A (Homo sapiens, UniProt Q13627); assay type: functional;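 further: measured against DYRK1A as one member of a broad kinome profiling panel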
[10] = target: Insulin-like growth factor 1 receptor (Homo sapiens, UniProt P08069); experiment: Navigating the Kinome. Panel member name: IGF1R; assay type: functional
[11] = target: Cyclin-dependent kinase 5 (Homo sapiens, UniProt Q00535); assay type: functional;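 further: CDK5 measured as one member of a kinase profiling panel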
[12] = target: BDNF/NT-3 growth factors receptor (Homo sapiens, UniProt Q16620); assay type: functional;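 further: NTRK2 measured as one member of a broad kinome-wide kinase profiling panel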
[13] = target: Mitogen-activated protein kinase 8 (Homo sapiens, UniProt P45983); assay type: functional;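 further: value comes from one member of a kinome-wide kinase profiling panel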
[14] = target: Cyclin-dependent kinase 9 (Homo sapiens, UniProt P50750); assay type: functional;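 further: value from the CDK9 entry of a kinome-spanning kinase panel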
[15] = target: Rho-associated protein kinase 1 (Homo sapiens, UniProt Q13464); assay type: functional;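 further: measured within a broad kinome-wide panel profiling many kinases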
[16] = target: Casein kinase I isoform alpha (Homo sapiens, UniProt P48729); assay type: functional
[17] = target: Mitogen-activated protein kinase kinase kinase kinase 4 (Homo sapiens, UniProt O95819); assay type: functional
[18] = target: Dual specificity mitogen-activated protein kinase kinase 1 (Homo sapiens, UniProt Q02750); experiment: Navigating the Kinome. Panel member name: MAP2K1; assay type: functional
[19] = target: Fibroblast growth factor receptor 1 (Homo sapiens, UniProt P11362); assay type: functional
[20] = target: cAMP-dependent protein kinase catalytic subunit PRKX (Homo sapiens, UniProt P51817); assay type: functional
[21] = target: Macrophage colony-stimulating factor 1 receptor (Homo sapiens, UniProt P07333); assay type: functional;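 further: value comes from the Navigating the Kinome screening panel, CSF1R member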
[22] = target: Dual specificity protein kinase CLK4 (Homo sapiens, UniProt Q9HAZ1); assay type: functional
[23] = target: Proto-oncogene tyrosine-protein kinase receptor Ret (Homo sapiens, UniProt P07949); assay type: functional;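 further: measured within a kinome-wide profiling panel, RET as the panel member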
[24] = target: Protein kinase C theta type (Homo sapiens, UniProt Q04759); experiment: Navigating the Kinome. Panel member name: PRKCQ; assay type: functional
[25] = target: Serine/threonine-protein kinase TBK1 (Homo sapiens, UniProt Q9UHD2); experiment: Navigating the Kinome. Panel member name: TBK1; assay type: functional
[26] = target: Tyrosine-protein kinase JAK2 (Homo sapiens, UniProt O60674); assay type: functional;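 further: JAK2 tested as one member of a kinase panel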
[27] = target: Leukocyte tyrosine kinase receptor (Homo sapiens, UniProt P29376); experiment: Navigating the Kinome. Panel member name: LTK; assay type: functional
[28] = target: Activin receptor type-1 (Homo sapiens, UniProt Q04771); experiment: Navigating the Kinome. Panel member name: ACVR1; assay type: functional
[29] = target: Inhibitor of nuclear factor kappa-B kinase subunit epsilon (Homo sapiens, UniProt Q14164); experiment: Navigating the Kinome. Panel member name: IKBKE; assay type: functional
[30] = target: Serine/threonine-protein kinase pim-1 (Homo sapiens, UniProt P11309); assay type: functional
[31] = target: 5'-AMP-activated protein kinase catalytic subunit alpha-1 (Homo sapiens, UniProt Q13131); assay type: functional
[32] = target: Focal adhesion kinase 1 (Homo sapiens, UniProt Q05397); assay type: functional;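 further: measured as one member of a kinome panel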
[33] = target: Serine/threonine-protein kinase TAO1 (Homo sapiens, UniProt Q7L7X3); assay type: functional
[34] = target: Macrophage-stimulating protein receptor (Homo sapiens, UniProt Q04912); experiment: Navigating the Kinome. Panel member name: MST1R; assay type: functional
[35] = target: Tyrosine-protein kinase ABL1 (Homo sapiens, UniProt P00519); assay type: functional
[36] = target: Tyrosine-protein kinase Fyn (Homo sapiens, UniProt P06241); assay type: functional
[37] = target: LIM domain kinase 1 (Homo sapiens, UniProt P53667); experiment: Navigating the Kinome. Panel member name: LIMK1; assay type: functional
[38] = target: Calcium/calmodulin-dependent protein kinase type II subunit alpha (Homo sapiens, UniProt Q9UQM7); experiment: Navigating the Kinome. Panel member name: CAMK2A; assay type: functional
[39] = target: Aurora kinase B (Homo sapiens, UniProt Q96GD4); assay type: functional
[40] = target: Activated CDC42 kinase 1 (Homo sapiens, UniProt Q07912); experiment: Navigating the Kinome. Panel member name: ACK1; assay type: functional
[41] = target: Serine/threonine-protein kinase Chk1 (Homo sapiens, UniProt O14757); assay type: functional;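 further: measured as one member of a kinome-wide kinase profiling panel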
[42] = target: cAMP-dependent protein kinase catalytic subunit alpha (Homo sapiens, UniProt P17612); assay type: functional
[43] = target: Platelet-derived growth factor receptor alpha (Homo sapiens, UniProt P16234); experiment: Navigating the Kinome. Panel member name: PDGFRA; assay type: functional
[44] = target: Tyrosine-protein kinase Lck (Homo sapiens, UniProt P06239); assay type: functional;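 further: lck was assayed as one member of a kinase panel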
[45] = target: Serine/threonine-protein kinase PAK 4 (Homo sapiens, UniProt O96013); assay type: functional;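 further: value obtained within a kinome profiling panel in which PAK4 was one of the panel members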
[46] = target: Aurora kinase A (Homo sapiens, UniProt O14965); assay type: functional;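 further: value from the Navigating the Kinome kinase panel profiling, panel entry STK6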
[47] = target: Vascular endothelial growth factor receptor 1 (Homo sapiens, UniProt P17948); assay type: functional;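 further: measured within a kinome-wide profiling panel, FLT1 as the panel member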
[48] = target: Cyclin-dependent kinase 7 (Homo sapiens, UniProt P50613); assay type: functional;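 further: value comes from a kinome-wide kinase profiling panel in which CDK7 is one member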
[49] = target: Glycogen synthase kinase-3 alpha (Homo sapiens, UniProt P49840); assay type: functional;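 further: GSK3A result taken from a broad kinome-wide kinase panel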
[50] = target: ALK tyrosine kinase receptor (Homo sapiens, UniProt Q9UM73); assay type: functional;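 further: ALK tested as one member of a kinase panel screen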
[51] = target: Dual specificity protein kinase CLK2 (Homo sapiens, UniProt P49760); assay type: functional
[52] = target: Dual specificity tyrosine-phosphorylation-regulated kinase 1B (Homo sapiens, UniProt Q9Y463); experiment: Navigating the Kinome. Panel member name: DYRK1B; assay type: functional
[53] = target: Leucine-rich repeat serine/threonine-protein kinase 2 (Homo sapiens, UniProt Q5S007); assay type: functional;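 further: value from a broad kinome-wide panel profiling study in which LRRK2 was one of the kinases tested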
[54] = target: Mitogen-activated protein kinase kinase kinase kinase 2 (Homo sapiens, UniProt Q12851); assay type: functional;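 further: measured as one member of a kinome-wide kinase panel, with MAP4K2 as the panel entry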
[55] = target: Tyrosine-protein kinase JAK3 (Homo sapiens, UniProt P52333); assay type: functional
[56] = target: Mitogen-activated protein kinase 9 (Homo sapiens, UniProt P45984); assay type: functional;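 further: value from a kinome panel profiling assay, MAPK9 panel entry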
[57] = target: Serine/threonine-protein kinase D3 (Homo sapiens, UniProt O94806); assay type: functional;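 further: determined within a kinase panel screen, with PRKCN as the panel member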
[58] = target: Vascular endothelial growth factor receptor 2 (Homo sapiens, UniProt P35968); assay type: functional
[59] = target: Tyrosine-protein kinase receptor TYRO3 (Homo sapiens, UniProt Q06418); assay type: functional;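 further: TYRO3 value obtained as one member of a kinome-wide profiling panel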
[60] = target: Dual specificity mitogen-activated protein kinase kinase 2 (Homo sapiens, UniProt P36507); experiment: Navigating the Kinome. Panel member name: MAP2K2; assay type: functional
[61] = target: Death-associated protein kinase 3 (Homo sapiens, UniProt O43293); assay type: functional;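 further: measured as one member of a kinome-wide profiling panel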
[62] = target: Platelet-derived growth factor receptor beta (Homo sapiens, UniProt P09619); assay type: functional;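 further: value comes from a kinome panel, with PDGFRB tested as one panel member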
[63] = target: Cyclin-dependent kinase 19 (Homo sapiens, UniProt Q9BWU1); experiment: Navigating the Kinome. Panel member name: CDC2L6; assay type: functional
[64] = target: Mitogen-activated protein kinase 14 (Homo sapiens, UniProt Q16539); assay type: functional;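 further: part of a kinome-wide panel, MAPK14 entry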
[65] = test system: HEK293; experiment: cells; settings: Homo sapiens
[66] = target: Protein disulfide-isomerase (Homo sapiens, UniProt P07237); experiment: PDI inhibitors, insulin aggregation turbidity, dose response, biochemical, absorbance, cherry-picked samples (AID 602350); assay type: functional
[67] = test system: HEK293; experiment: cells; settings: Homo sapiens; remark: listed apart in the source
[68] = test system: Vero; experiment: cells; assay type: functional; settings: Chlorocebus sabaeus
[69] = target: Casein kinase I isoform delta (Homo sapiens, UniProt P48730); assay type: functional;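 further: measured as one member (CSNK1D) of a kinome panel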

Chain of Dual specificity protein kinase CLK4 (Q9HAZ1 whole entry): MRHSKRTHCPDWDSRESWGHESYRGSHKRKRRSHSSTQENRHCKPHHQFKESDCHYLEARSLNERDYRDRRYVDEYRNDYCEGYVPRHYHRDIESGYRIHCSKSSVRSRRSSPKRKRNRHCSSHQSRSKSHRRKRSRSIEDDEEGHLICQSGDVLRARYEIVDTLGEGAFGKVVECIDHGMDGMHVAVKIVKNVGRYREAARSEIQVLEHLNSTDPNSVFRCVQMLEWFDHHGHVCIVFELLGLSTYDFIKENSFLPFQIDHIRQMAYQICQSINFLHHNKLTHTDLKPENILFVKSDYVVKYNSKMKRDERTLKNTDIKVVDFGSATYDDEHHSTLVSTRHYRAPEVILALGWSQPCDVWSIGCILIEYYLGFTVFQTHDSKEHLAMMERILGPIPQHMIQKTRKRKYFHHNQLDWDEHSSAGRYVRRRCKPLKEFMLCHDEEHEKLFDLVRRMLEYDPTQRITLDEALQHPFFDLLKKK
Chain of Vascular endothelial growth factor receptor 2 (P35968 whole entry): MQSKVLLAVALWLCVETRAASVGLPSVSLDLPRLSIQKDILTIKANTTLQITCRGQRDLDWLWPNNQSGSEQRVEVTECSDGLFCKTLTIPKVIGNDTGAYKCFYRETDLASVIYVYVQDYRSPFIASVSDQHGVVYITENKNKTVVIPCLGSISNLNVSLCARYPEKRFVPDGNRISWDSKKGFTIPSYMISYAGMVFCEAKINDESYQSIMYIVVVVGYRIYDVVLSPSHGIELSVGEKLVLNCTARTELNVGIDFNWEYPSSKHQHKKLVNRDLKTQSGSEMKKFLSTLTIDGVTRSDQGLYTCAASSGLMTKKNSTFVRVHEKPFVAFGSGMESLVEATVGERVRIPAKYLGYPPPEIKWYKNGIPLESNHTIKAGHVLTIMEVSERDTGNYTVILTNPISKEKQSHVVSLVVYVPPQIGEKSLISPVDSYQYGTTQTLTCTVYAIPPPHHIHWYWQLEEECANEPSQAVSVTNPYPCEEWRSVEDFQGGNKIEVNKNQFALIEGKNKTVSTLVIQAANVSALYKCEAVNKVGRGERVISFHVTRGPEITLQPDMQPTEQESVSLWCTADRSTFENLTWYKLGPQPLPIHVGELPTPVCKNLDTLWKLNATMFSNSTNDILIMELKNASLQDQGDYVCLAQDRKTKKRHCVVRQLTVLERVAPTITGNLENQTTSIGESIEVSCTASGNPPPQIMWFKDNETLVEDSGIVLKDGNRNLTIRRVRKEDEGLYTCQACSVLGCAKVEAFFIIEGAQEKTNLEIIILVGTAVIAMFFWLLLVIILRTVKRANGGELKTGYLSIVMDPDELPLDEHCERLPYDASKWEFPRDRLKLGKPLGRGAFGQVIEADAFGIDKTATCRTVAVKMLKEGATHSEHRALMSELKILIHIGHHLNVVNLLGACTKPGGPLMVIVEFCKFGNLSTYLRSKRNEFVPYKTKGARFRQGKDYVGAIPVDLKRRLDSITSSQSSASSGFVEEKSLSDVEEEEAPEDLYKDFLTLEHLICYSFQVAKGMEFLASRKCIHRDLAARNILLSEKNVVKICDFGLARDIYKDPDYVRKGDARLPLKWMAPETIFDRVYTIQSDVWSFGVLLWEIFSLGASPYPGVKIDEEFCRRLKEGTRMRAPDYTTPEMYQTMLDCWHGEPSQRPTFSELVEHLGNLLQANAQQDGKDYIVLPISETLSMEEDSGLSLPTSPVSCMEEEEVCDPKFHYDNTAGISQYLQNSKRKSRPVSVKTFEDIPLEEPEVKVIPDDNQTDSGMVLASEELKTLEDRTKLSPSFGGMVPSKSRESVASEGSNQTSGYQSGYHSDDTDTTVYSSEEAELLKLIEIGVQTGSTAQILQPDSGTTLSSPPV
Chain of Macrophage colony-stimulating factor 1 receptor (P07333 whole entry): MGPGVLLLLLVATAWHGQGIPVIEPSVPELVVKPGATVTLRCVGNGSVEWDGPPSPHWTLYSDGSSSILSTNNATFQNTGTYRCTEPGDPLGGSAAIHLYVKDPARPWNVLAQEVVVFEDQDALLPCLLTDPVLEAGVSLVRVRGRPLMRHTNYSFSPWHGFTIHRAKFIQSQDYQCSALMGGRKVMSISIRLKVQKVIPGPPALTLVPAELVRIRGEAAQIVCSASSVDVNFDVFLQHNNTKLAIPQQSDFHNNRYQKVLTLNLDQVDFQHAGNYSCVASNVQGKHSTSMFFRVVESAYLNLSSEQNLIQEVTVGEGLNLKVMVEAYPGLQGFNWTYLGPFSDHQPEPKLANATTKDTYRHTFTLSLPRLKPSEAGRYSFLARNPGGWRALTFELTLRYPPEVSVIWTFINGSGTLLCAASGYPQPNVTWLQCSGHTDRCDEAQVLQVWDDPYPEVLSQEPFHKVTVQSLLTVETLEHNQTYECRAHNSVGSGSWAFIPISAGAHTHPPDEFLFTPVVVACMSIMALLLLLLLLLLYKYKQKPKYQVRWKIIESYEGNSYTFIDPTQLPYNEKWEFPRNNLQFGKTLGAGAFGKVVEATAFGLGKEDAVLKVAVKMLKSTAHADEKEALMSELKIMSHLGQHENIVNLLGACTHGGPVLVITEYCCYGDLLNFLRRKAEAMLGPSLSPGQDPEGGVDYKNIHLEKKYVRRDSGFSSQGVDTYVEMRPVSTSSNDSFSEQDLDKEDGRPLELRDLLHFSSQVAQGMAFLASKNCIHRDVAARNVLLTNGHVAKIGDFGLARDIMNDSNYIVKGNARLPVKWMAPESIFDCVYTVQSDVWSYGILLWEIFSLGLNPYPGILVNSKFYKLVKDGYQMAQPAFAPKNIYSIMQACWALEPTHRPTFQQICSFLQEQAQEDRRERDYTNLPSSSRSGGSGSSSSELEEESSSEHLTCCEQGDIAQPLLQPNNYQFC
T1 sequence (P14735 whole entry): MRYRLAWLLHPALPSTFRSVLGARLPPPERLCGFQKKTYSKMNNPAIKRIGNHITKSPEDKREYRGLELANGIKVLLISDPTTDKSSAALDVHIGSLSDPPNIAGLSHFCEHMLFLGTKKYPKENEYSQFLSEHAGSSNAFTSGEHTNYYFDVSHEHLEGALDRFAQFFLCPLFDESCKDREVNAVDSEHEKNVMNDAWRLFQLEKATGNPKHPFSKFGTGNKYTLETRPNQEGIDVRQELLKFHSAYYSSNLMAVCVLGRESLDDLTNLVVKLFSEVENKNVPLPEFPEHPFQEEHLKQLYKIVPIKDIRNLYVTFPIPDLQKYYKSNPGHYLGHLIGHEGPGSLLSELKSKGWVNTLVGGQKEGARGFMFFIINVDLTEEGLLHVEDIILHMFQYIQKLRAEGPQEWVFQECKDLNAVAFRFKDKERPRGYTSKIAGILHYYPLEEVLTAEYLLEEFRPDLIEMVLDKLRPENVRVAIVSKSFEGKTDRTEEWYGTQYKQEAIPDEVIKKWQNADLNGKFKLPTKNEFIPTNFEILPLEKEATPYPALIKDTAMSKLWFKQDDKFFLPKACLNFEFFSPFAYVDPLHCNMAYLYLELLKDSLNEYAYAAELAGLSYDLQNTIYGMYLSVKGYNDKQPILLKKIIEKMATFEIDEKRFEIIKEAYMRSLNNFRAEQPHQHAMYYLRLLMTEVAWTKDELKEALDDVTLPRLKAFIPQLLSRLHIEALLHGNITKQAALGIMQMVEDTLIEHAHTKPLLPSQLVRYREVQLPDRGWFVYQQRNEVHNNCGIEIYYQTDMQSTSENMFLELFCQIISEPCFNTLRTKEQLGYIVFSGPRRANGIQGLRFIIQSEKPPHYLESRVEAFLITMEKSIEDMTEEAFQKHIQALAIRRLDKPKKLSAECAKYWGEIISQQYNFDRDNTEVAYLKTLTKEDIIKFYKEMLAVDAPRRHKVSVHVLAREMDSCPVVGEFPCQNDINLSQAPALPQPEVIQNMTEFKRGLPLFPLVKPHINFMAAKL
Chain of Cyclin-dependent kinase 9 (P50750 whole entry): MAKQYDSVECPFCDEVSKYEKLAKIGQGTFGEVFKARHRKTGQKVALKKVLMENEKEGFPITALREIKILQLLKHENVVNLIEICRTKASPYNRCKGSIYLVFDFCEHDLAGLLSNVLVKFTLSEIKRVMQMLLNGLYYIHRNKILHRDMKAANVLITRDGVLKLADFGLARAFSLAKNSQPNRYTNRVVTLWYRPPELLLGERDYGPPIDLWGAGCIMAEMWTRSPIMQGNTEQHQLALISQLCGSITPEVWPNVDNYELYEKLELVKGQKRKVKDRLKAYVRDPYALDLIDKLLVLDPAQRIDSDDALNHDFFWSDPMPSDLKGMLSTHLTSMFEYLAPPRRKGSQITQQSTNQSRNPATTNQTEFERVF
Chain of Cyclin-dependent kinase 8 (P49336 whole entry): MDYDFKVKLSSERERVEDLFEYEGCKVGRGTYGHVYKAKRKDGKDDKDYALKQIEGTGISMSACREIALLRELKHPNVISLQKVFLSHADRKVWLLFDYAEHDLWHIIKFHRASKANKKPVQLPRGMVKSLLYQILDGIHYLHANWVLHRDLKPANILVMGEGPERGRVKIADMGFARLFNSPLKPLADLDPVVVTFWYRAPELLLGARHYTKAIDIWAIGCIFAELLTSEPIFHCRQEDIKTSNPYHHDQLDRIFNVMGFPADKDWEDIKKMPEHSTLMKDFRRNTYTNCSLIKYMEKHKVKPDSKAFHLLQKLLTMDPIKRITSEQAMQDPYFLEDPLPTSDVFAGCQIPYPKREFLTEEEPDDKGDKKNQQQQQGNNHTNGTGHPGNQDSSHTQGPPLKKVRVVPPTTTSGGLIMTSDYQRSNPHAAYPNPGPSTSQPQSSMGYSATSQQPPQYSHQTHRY
Chain of Aurora kinase A (O14965 whole entry): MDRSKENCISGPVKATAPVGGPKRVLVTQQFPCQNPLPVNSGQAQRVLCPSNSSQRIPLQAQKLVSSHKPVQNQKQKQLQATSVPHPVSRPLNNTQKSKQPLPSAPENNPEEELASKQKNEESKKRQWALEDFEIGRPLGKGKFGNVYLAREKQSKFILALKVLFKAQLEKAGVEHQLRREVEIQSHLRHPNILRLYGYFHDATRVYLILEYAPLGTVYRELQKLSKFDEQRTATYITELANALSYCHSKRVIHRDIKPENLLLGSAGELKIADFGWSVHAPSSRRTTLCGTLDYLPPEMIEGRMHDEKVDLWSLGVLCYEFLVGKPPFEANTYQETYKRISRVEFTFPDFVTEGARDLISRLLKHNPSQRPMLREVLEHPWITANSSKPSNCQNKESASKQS

`COc1ccc2c(Cl)c(-c3nnc(SCC(=O)c4ccc(F)cc4)n3C)sc2c1` was tested, and the IC50 [1] was > 99 µM (inactive) and the IC50 [2] was > 99 µM (inactive).

With `CCCCCc1nnc(NC(=O)C2CCCO2)s1` (stereo unspecified) the EC50 [3] was > 54.7 µM (inactive), the IC50 [4] was > 89.1 µM (inactive) and the EC50 [5] was > 54.7 µM (inactive). The EC50 [6] was > 54.7 µM (inactive).

In the case of `Cc1n[nH]c2ccc(-c3cccnc3)cc12`, the Ki [7] is reported as 0.0251 µM (active), the Ki [8] is reported as 3.98 µM (active) and the Ki [9] is reported as 0.0398 µM (active). For the same molecule, the Ki [10] was 39.8 µM (active), the Ki [11] was 0.126 µM (active) and the Ki [12] was 79.4 µM (active). The Ki [13] was 5.01 µM (active), the Ki [14] was 0.794 µM (active) and the Ki [15] was 0.251 µM (active). For the same molecule, the Ki [16] was 7.94 µM (active), the Ki [17] was 2.51 µM (active) and the Ki [18] was 10 µM (active). For the same molecule, the Ki [19] was 50.1 µM (active), the Ki [20] was 6.31 µM (active) and the Ki [21] was 31.6 µM (active). For the same molecule, the Ki [22] was 0.002 µM (active), the Ki [23] was 39.8 µM (active) and the Ki [24] was 0.126 µM (active). For the same molecule, the Ki [25] was 39.8 µM (active), the Ki [26] was 7.94 µM (active) and the Ki [27] was 3.16 µM (active). The Ki [28] was 3.98 µM (active), the Ki [29] was 20 µM (active) and the Ki [30] was 7.94 µM (active). The Ki [31] was 20 µM (active), the Ki [32] was 25.1 µM (active) and the Ki [33] was 50.1 µM (active). For the same molecule, the Ki [34] was 12.6 µM (active), the Ki [35] was 25.1 µM (active) and the Ki [36] was 79.4 µM (active). For the same molecule, the Ki [37] was 79.4 µM (active), the Ki [38] was 12.6 µM (active) and the Ki [39] was 10 µM (active). For the same molecule, the Ki [40] was 50.1 µM (active), the Ki [41] was 63.1 µM (active) and the Ki [42] was 2.51 µM (active). The Ki [43] was 31.6 µM (active), the Ki [44] was 63.1 µM (active) and the Ki [45] was 79.4 µM (active). The Ki [46] was 15.8 µM (active), the Ki [47] was 31.6 µM (active) and the Ki [48] was 7.94 µM (active). The Ki [49] was 3.98 µM (active), the Ki [50] was 12.6 µM (active) and the Ki [51] was 0.0631 µM (active). The Ki [52] was 0.0126 µM (active), the Ki [53] was 0.398 µM (active) and the Ki [54] was 3.98 µM (active). The Ki [55] was 63.1 µM (active), the Ki [56] was 20 µM (active) and the Ki [57] was 2.51 µM (active). The Ki [58] was 6.31 µM (active), the Ki [59] was 79.4 µM (active) and the Ki [60] was 10 µM (active). The Ki [61] was 2 µM (active).

With `C(=Cc1ccc2nccn2n1)c1ccccc1` the Ki [7] was 12.6 µM (active), the Ki [9] was > 79.4 µM (inactive) and the Ki [14] was > 63.1 µM (inactive). For the same molecule, the Ki [17] was 7.94 µM (active), the Ki [21] was > 100 µM (inactive) and the Ki [22] was 3.98 µM (active). The Ki [24] was > 100 µM (inactive), the Ki [62] was > 79.4 µM (inactive) and the Ki [42] was 5.01 µM (active). The Ki [46] was > 63.1 µM (inactive), the Ki [53] was 3.98 µM (active) and the Ki [63] was > 100 µM (inactive). For the same molecule, the Ki [58] was > 100 µM (inactive) and the Ki [64] was 100 µM (active).

`COC1/C=C/C=C(\C)Cc2cc(O)c(Cl)c(c2)N(C)C(=O)CC(OC(=O)C(C)C)C2(C)OC2C(C)C2CC1(O)NC(=O)O2` (stereo unspecified) was tested, and the EC50 [65] was > 59.7 µM (inactive), the AC50 [66] was 9.59 µM (active) and the EC50 [67] was > 59.7 µM (inactive). For the same molecule, the CC50 [68] was < 0.05 µM (active).

For `CN1CCN(Cc2ccc3c(c2)-c2n[nH]c(=O)c4cccc(c24)O3)CC1`, the Ki [30] was 5.01 µM (active) and the Ki [69] was 3.16 µM (active).
